Reference: ChEMBL document CHEMBL1201862, “PubChem BioAssay data set” (2004)
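Exposure lasted 48 hours, with cells grown in 96-well plates and compounds tested at five concentrations. At the GI50, growth is halved.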 Active and inactive are the calls of the source. No stated cut-off is given here; in the data, active = GI50 up to about 1.1 µM and inactive = higher.

What was measured:
Assay in all cases: DTP human tumour cell line panel, 48 h
M14 = test system: M14
A549 = test system: A549
SK-MEL-28 = test system: SK-MEL-28
SF-539 = test system: SF-539
EKVX = test system: EKVX
HL-60 = test system: HL-60
SK-OV-3 = test system: SK-OV-3
OVCAR-3 = test system: OVCAR-3
SR = test system: SR
UACC-257 = test system: UACC-257
TK-10 = test system: TK-10
OVCAR-5 = test system: OVCAR-5
SF-295 = test system: SF-295
786-0 = test system: 786-0
SK-MEL-2 = test system: SK-MEL-2
NCI-H522 = test system: NCI-H522
SK-MEL-5 = test system: SK-MEL-5
HOP-92 = test system: HOP-92
SNB-75 = test system: SNB-75

SMILES	GI50 (M14)	GI50 (A549)	GI50 (SK-MEL-28)	GI50 (SF-539)	GI50 (EKVX)	GI50 (HL-60)	GI50 (SK-OV-3)	GI50 (OVCAR-3)	GI50 (SR)	GI50 (UACC-257)	GI50 (TK-10)	GI50 (OVCAR-5)	GI50 (SF-295)	GI50 (786-0)	GI50 (SK-MEL-2)	GI50 (NCI-H522)	GI50 (SK-MEL-5)	GI50 (HOP-92)	GI50 (SNB-75)
CC(C)(C)c1cc2c3c(c1)C(C(F)(F)F)(C(F)(F)F)O[Te]3(C)OC2(C(F)(F)F)C(F)(F)F	> 100 µM (inactive)	> 100 µM (inactive)	> 100 µM (inactive)	> 100 µM (inactive)	> 100 µM (inactive)	> 100 µM (inactive)	> 100 µM (inactive)	> 100 µM (inactive)	> 100 µM (inactive)	> 100 µM (inactive)	> 100 µM (inactive)	> 100 µM (inactive)	> 100 µM (inactive)	> 100 µM (inactive)	> 100 µM (inactive)	> 100 µM (inactive)	–	–	–
Cn1c(O)c(C(=O)NC2CCCCC2)c(=O)n(C)c1=S	8.02 µM (inactive)	3.3 µM (inactive)	4.61 µM (inactive)	9.16 µM (inactive)	–	–	5.64 µM (inactive)	4.93 µM (inactive)	17.9 µM (inactive)	6.27 µM (inactive)	6.32 µM (inactive)	14.5 µM (inactive)	3.23 µM (inactive)	6.15 µM (inactive)	5.11 µM (inactive)	3.58 µM (inactive)	5.05 µM (inactive)	3.59 µM (inactive)	–
CC(=O)O[C@@H]1[C@@H](O)C2=C3[C@]4(C)[C@@H]1C(C)(C)C(=O)C[C@@H]4[C@]3(O)[C@H](OC(C)=O)[C@@]1(C[C@@H]1C)C2=O	25.2 µM (inactive)	24.2 µM (inactive)	16.3 µM (inactive)	21.3 µM (inactive)	19.2 µM (inactive)	13.6 µM (inactive)	24.2 µM (inactive)	18.5 µM (inactive)	–	13.9 µM (inactive)	14.2 µM (inactive)	23.7 µM (inactive)	20.7 µM (inactive)	15.6 µM (inactive)	25.6 µM (inactive)	5.18 µM (inactive)	19.8 µM (inactive)	15.6 µM (inactive)	21.8 µM (inactive)
O=C1CC(c2c(-c3ccccc3)[nH]c3ccccc23)C(=O)N1 (stereo not given)	> 100 µM (inactive)	> 100 µM (inactive)	> 100 µM (inactive)	> 100 µM (inactive)	> 100 µM (inactive)	> 100 µM (inactive)	> 100 µM (inactive)	> 100 µM (inactive)	–	> 100 µM (inactive)	> 100 µM (inactive)	> 100 µM (inactive)	> 100 µM (inactive)	> 100 µM (inactive)	> 100 µM (inactive)	–	> 100 µM (inactive)	–	35.4 µM (inactive)
CCCCCCNC(=O)c1cnc(Cl)cn1	13.2 µM (inactive)	13.8 µM (inactive)	24 µM (inactive)	17.6 µM (inactive)	5.93 µM (inactive)	23.8 µM (inactive)	22.9 µM (inactive)	–	4.3 µM (inactive)	14.3 µM (inactive)	22.4 µM (inactive)	17.3 µM (inactive)	18.1 µM (inactive)	26.1 µM (inactive)	14.7 µM (inactive)	0.206 µM (active)	16.8 µM (inactive)	3.15 µM (inactive)	21 µM (inactive)
C#CCOCn1cnc2c(Sc3c([N+](=O)[O-])ncn3C)ncnc21	> 100 µM (inactive)	> 100 µM (inactive)	> 100 µM (inactive)	–	> 100 µM (inactive)	> 100 µM (inactive)	> 100 µM (inactive)	> 100 µM (inactive)	–	> 100 µM (inactive)	> 100 µM (inactive)	> 100 µM (inactive)	> 100 µM (inactive)	> 100 µM (inactive)	> 100 µM (inactive)	48.3 µM (inactive)	> 100 µM (inactive)	> 100 µM (inactive)	22.8 µM (inactive)
CC(=O)N1C(NN(C)C)CCN1c1ccccc1 (stereo not given)	> 10 µM (inactive)	> 10 µM (inactive)	> 10 µM (inactive)	–	> 10 µM (inactive)	> 10 µM (inactive)	> 10 µM (inactive)	–	> 10 µM (inactive)	> 10 µM (inactive)	> 10 µM (inactive)	–	> 10 µM (inactive)	> 10 µM (inactive)	–	–	> 10 µM (inactive)	> 10 µM (inactive)	> 10 µM (inactive)
CCOC(=O)CN.CCOC(=O)Nc1ccc(S(=O)(=O)OC)cc1.CCOC(=O)Nc1ccc(S(=O)(=O)OC)cc1	> 50 µM (inactive)	> 50 µM (inactive)	> 50 µM (inactive)	> 50 µM (inactive)	> 50 µM (inactive)	> 50 µM (inactive)	> 50 µM (inactive)	> 50 µM (inactive)	–	> 50 µM (inactive)	> 50 µM (inactive)	> 50 µM (inactive)	> 50 µM (inactive)	> 50 µM (inactive)	> 50 µM (inactive)	–	> 50 µM (inactive)	> 50 µM (inactive)	> 50 µM (inactive)
COC(=O)[C@](NC(=O)OCc1ccccc1)([C@@H](C)[S+]([O-])c1ccc(C)cc1)C(F)(F)F (stereo not given in full)	48.2 µM (inactive)	29.9 µM (inactive)	62.7 µM (inactive)	–	29.2 µM (inactive)	17 µM (inactive)	53.1 µM (inactive)	43.7 µM (inactive)	22.9 µM (inactive)	24.8 µM (inactive)	21.5 µM (inactive)	> 100 µM (inactive)	32.7 µM (inactive)	52.2 µM (inactive)	19.5 µM (inactive)	24.6 µM (inactive)	16.4 µM (inactive)	26.9 µM (inactive)	36.4 µM (inactive)
Cc1ccc(O)c(C(=O)CCCC(=O)c2cc(C)ccc2O)c1	> 100 µM (inactive)	–	> 100 µM (inactive)	> 100 µM (inactive)	> 100 µM (inactive)	27.4 µM (inactive)	> 100 µM (inactive)	–	–	> 100 µM (inactive)	48.1 µM (inactive)	> 100 µM (inactive)	> 100 µM (inactive)	38.3 µM (inactive)	> 100 µM (inactive)	63.8 µM (inactive)	> 100 µM (inactive)	61 µM (inactive)	81.5 µM (inactive)
Cc1c(/C=N/NS(=O)(=O)c2ccccc2)no[n+]1[O-]	> 100 µM (inactive)	> 100 µM (inactive)	> 100 µM (inactive)	> 100 µM (inactive)	> 100 µM (inactive)	> 100 µM (inactive)	> 100 µM (inactive)	> 100 µM (inactive)	> 100 µM (inactive)	–	> 100 µM (inactive)	> 100 µM (inactive)	> 100 µM (inactive)	> 100 µM (inactive)	> 100 µM (inactive)	> 100 µM (inactive)	> 100 µM (inactive)	> 100 µM (inactive)	–
CC(C(=O)c1ccc(O)cc1)C1(O)C(=O)Nc2c(Cl)cc(Cl)cc21 (stereo not given)	26.7 µM (inactive)	> 100 µM (inactive)	31.1 µM (inactive)	51.2 µM (inactive)	49.3 µM (inactive)	20.9 µM (inactive)	> 100 µM (inactive)	31.6 µM (inactive)	–	17.5 µM (inactive)	> 100 µM (inactive)	> 100 µM (inactive)	45.4 µM (inactive)	48.1 µM (inactive)	> 100 µM (inactive)	23.1 µM (inactive)	17.1 µM (inactive)	> 100 µM (inactive)	47.6 µM (inactive)
CC(=O)OC1C/C(C)=C/[C@H](O)CC(C)/C=C/[C@@]2(C)CCC(C(C)(C)O)C12 (stereo not given in full)	> 100 µM (inactive)	> 100 µM (inactive)	> 100 µM (inactive)	> 100 µM (inactive)	> 100 µM (inactive)	> 100 µM (inactive)	> 100 µM (inactive)	> 100 µM (inactive)	> 100 µM (inactive)	> 100 µM (inactive)	> 100 µM (inactive)	> 100 µM (inactive)	> 100 µM (inactive)	> 100 µM (inactive)	> 100 µM (inactive)	–	> 100 µM (inactive)	> 100 µM (inactive)	> 100 µM (inactive)
Cn1ccc(=NS(=O)(=O)c2ccccc2)cc1	–	> 100 µM (inactive)	> 100 µM (inactive)	> 100 µM (inactive)	> 100 µM (inactive)	> 100 µM (inactive)	> 100 µM (inactive)	> 100 µM (inactive)	–	> 100 µM (inactive)	> 100 µM (inactive)	> 100 µM (inactive)	> 100 µM (inactive)	> 100 µM (inactive)	> 100 µM (inactive)	> 100 µM (inactive)	> 100 µM (inactive)	> 100 µM (inactive)	> 100 µM (inactive)
COC(=O)/C(C#N)=C1\CCc2ccccc21	> 100 µM (inactive)	> 100 µM (inactive)	> 100 µM (inactive)	> 100 µM (inactive)	> 100 µM (inactive)	> 100 µM (inactive)	> 100 µM (inactive)	> 100 µM (inactive)	–	> 100 µM (inactive)	> 100 µM (inactive)	> 100 µM (inactive)	> 100 µM (inactive)	> 100 µM (inactive)	> 100 µM (inactive)	> 100 µM (inactive)	> 100 µM (inactive)	> 100 µM (inactive)	> 100 µM (inactive)
CCCCCCCCCC1C(C)c2c([nH]c3ccccc23)C2C(=O)N(c3ccccc3)C(=O)C21 (stereo not given)	13.1 µM (inactive)	17.7 µM (inactive)	2.29 µM (inactive)	19.7 µM (inactive)	54 µM (inactive)	3.71 µM (inactive)	18.2 µM (inactive)	3.43 µM (inactive)	–	15.8 µM (inactive)	28 µM (inactive)	17.4 µM (inactive)	15.4 µM (inactive)	12.4 µM (inactive)	16.8 µM (inactive)	–	17 µM (inactive)	–	13.5 µM (inactive)
